Consider four compounds from BindingDB's records for doi:10.1021/jm900098v (Kosan Biosciences, 2009).

Sequence of Heat shock protein HSP 90-beta (P08238 whole entry): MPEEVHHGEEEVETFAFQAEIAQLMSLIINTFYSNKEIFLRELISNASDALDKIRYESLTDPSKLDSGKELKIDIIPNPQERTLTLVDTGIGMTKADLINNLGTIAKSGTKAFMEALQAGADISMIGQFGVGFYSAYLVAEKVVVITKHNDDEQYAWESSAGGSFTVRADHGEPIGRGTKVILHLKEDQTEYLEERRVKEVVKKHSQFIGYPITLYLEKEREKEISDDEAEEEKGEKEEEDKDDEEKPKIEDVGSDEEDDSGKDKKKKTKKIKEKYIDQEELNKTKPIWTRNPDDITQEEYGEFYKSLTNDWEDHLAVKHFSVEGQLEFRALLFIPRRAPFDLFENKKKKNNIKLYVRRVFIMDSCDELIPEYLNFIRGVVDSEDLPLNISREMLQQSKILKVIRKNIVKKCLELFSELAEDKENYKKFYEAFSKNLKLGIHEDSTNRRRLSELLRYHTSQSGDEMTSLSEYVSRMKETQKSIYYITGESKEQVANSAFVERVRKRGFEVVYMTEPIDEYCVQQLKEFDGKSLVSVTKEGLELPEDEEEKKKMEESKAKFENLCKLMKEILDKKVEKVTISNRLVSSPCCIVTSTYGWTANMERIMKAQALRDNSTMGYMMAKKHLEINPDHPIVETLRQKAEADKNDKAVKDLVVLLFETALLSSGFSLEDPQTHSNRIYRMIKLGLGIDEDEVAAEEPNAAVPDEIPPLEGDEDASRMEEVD

The test addresses Heat shock protein HSP 90-beta (Homo sapiens, UniProt P08238). The test is described as follows: Binding affinity to human recombinant HSP90.
Regarding `CO[C@H]1C=CC=C(C)C(=O)Nc2cc(O)c(N=CCc3cnc[nH]3)c(c2O)C[C@@H](C)C[C@H](OC)[C@H](O)[C@@H](C)/C=C(\C)[C@@H]1OC(N)=O` [(8S,9S,12S,13R,14S,16R)-19-(2-(1H-imidazol-4-yl)ethylamino)-13-hydroxy-8,14-dimethoxy-4,10,12,16-tetramethyl-3,20,22-trioxo-2-azabicyclo[16.3.1]docosa-1(21),4,6,10,18-pentaen-9-yl carbamate], the Kd came to 0.8 µM. With `C=CC=Nc1c(O)cc2c(O)c1C[C@@H](C)C[C@H](OC)[C@H](OC(=O)CCN)[C@@H](C)/C=C(\C)[C@H](OC(N)=O)[C@@H](OC)C=CC=C(C)C(=O)N2` [(8S,9S,12S,13R,14S,16R)-19-(allylamino)-9-(carbamoyloxy)-8,14-dimethoxy-4,10,12,16-tetramethyl-3,20,22-trioxo-2-azabicyclo[16.3.1]docosa-1(21),4,6,10,18-pentaen-13-yl 3-aminopropanoate], the Kd is above 25 µM. `CO[C@H]1C=CC=C(C)C(=O)Nc2cc(O)c(N=CCN(C)C)c(c2O)C[C@@H](C)C[C@H](OC)[C@H](NCC(F)(F)F)[C@@H](C)/C=C(\C)[C@@H]1OC(N)=O` [(8S,9S,12S,13R,14S,16R)-19-(2-(dimethylamino)ethylamino)-8,14-dimethoxy-4,10,12,16-tetramethyl-3,20,22-trioxo-13-(2,2,2-trifluoroethylamino)-2-azabicyclo[16.3.1]docosa-1(21),4,6,10,18-pentaen-9-yl carbamate]: the Kd was 4 µM. As for `CO[C@H]1C=CC=C(C)C(=O)Nc2cc(O)c(N=CCN(C)C)c(c2O)C[C@@H](C)C[C@H](OC)[C@H](NCCC(F)(F)F)[C@@H](C)/C=C(\C)[C@@H]1OC(N)=O` [(8S,9S,12S,13R,14S,16R)-19-(2-(dimethylamino)ethylamino)-8,14-dimethoxy-4,10,12,16-tetramethyl-3,20,22-trioxo-13-(3,3,3-trifluoropropylamino)-2-azabicyclo[16.3.1]docosa-1(21),4,6,10,18-pentaen-9-yl carbamate], the Kd was above 10 µM.

By Kd is commonly meant the constant that tells how readily two partners part at equilibrium.
